In patent US20240166693A1, “METHODS AND COMPOUNDS FOR MODULATING MYOTONIC DYSTROPY 1” (Design Therapeutics, Inc., priority 2020, published 2024):
pEC50: −log10 of the molar value.

Tested on: Myotonic Dystrophy 1 affected patient fibroblasts (Coriell GM04602; 1600 CTG repeats)
Experiment: DM1 foci reduction assay (CAG10-Cy3 FISH, average foci per nucleus)
Assay type: cell-based
Conditions: Homo sapiens, Fibroblast, 48 h, read-out: Foci Reduction in Fibroblast EC50, 48 h (nM)
Outline: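 Read-out is mean nuclear foci per well from CAG10-Cy3 FISH (5 nM probe, overnight 37 °C) with DAPI nuclei, 4 fields per well at 20×. Compounds ran 48 h in 8-point, 3-fold series topping at 3 μM on 1600-CTG GM04602 fibroblasts, alongside GM07492 wild-type cells.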

Question: With `CCN(CC)CCCC[C@H](NC(=O)[C@H](CC(C)C)NC(=O)[C@H](C)NC(=O)[C@H](Cc1ccccc1)NC(=O)c1ccc(C(C)(C)C)cc1)C(=O)N[C@@H](CO)C(=O)NCCOCCNCC#CC#Cc1ccc(NC(=O)CCNC(=O)c2nc(NC(=O)c3cc(NC(=O)CCNC(=O)c4nc(NC(=O)CCCNC(=O)c5cc(NC(=O)c6nc(NC(=O)CCNC(=O)c7cc(NC(=O)c8nccn8C)cn7C)cn6C)cn5C)cn4C)cn3C)cn2C)cc1` [Compound 98] as the compound, how does the EC50 read?
Answer: Its EC50 is greater than 500 nM.

Question: How did the EC50 turn out when `CC(C)C[C@H](NC(=O)[C@H](C)NC(=O)[C@H](Cc1ccccc1)NC(=O)c1ccc(C(C)(C)C)cc1)C(=O)N[C@@H](CCCCN(C)C1CC2CCC1C2)C(=O)N[C@@H](CO)C(=O)NCCOCCOCCNC(=O)c1cc(NC(=O)c2cc(NC(=O)c3nc(NC(=O)c4cc(NC(=O)[C@@H](N)CCNC(=O)c5nc(NC(=O)c6cc(NC(=O)c7cc(NC(=O)c8nccn8C)cn7C)cn6C)cn5C)cn4C)cn3C)cn2C)cn1C` (stereo partly drawn) [Compound 118] was run?
Answer: The EC50 was greater than 500 nM.

Question: With `CCN(CC)CCCC[C@H](NC(=O)[C@H](CC(C)C)NC(=O)[C@H](C)NC(=O)[C@H](Cc1ccccc1)NC(=O)c1ccc(C(C)(C)C)cc1)C(=O)N[C@@H](CO)C(=O)NCCOCCOCCOCCOCCOCCNC(=O)c1cc(NC(=O)c2cc(NC(=O)c3nc(NC(=O)c4cc(NC(=O)[C@@H](N)CCNC(=O)c5nc(NC(=O)c6cc(NC(=O)c7cc(NC(=O)c8nccn8C)cn7C)cn6C)cn5C)cn4C)cn3C)cn2C)cn1C` [Compound 55] as the compound, how does the EC50 read?
Answer: The EC50 was greater than 500 nM.

Question: `CCN(CC)CCCC[C@H](NC(=O)[C@H](CC(C)C)NC(=O)[C@H](C)NC(=O)[C@H](Cc1ccccc1)NC(=O)c1ccc(C(C)(C)C)cc1)C(=O)N[C@@H](CO)C(=O)N(C)CCOCCOCCNC(=O)CCNC(=O)c1nc(NC(=O)c2cc(NC(=O)CCNC(=O)c3nc(NC(=O)CCCNC(=O)c4cc(NC(=O)c5nc(NC(=O)CCNC(=O)c6cc(NC(=O)c7nccn7C)cn6C)cn5C)cn4C)cn3C)cn2C)cn1C` [Compound 75] was tested. Which EC50 did it give?
Answer: The EC50 was less than 100 nM.

Question: `CCN(CC)CCCC[C@H](NC(=O)[C@H](CC(C)C)NC(=O)[C@H](C)NC(=O)[C@H](Cc1ccccc1)NC(=O)c1ccc(C(C)(C)C)cc1)C(=O)N[C@@H](CO)C(=O)N1CCN(CCOCCOCCOCCOCCNC(=O)CCNC(=O)c2nc(NC(=O)c3cc(NC(=O)CCNC(=O)c4nc(NC(=O)CCCNC(=O)c5cc(NC(=O)c6nc(NC(=O)CCNC(=O)c7cc(NC(=O)c8nccn8C)cn7C)cn6C)cn5C)cn4C)cn3C)cn2C)CC1` [Compound 185] was tested. Which EC50 did it give?
Answer: The EC50 was 100 to 500 nM.

Question: `CC(=O)N[C@@H](CCCCN(C)C1CC2CCC1C2)C(=O)N[C@@H](CO)C(=O)NCCOCCOCCOCCOCCOCCNC(=O)CCNC(=O)c1nc(NC(=O)c2cc(NC(=O)CCNC(=O)c3nc(NC(=O)CCCNC(=O)c4cc(NC(=O)c5nc(NC(=O)CCNC(=O)c6cc(NC(=O)c7nccn7C)cn6C)cn5C)cn4C)cn3C)cn2C)cn1C` (stereo partly drawn) [Compound 67] was tested. Which EC50 did it give?
Answer: The EC50 was 100 to 500 nM.

Question: With `CC(C)C[C@H](NC(=O)[C@H](C)NC(=O)[C@H](Cc1ccccc1)NC(=O)c1ccc(C(C)(C)C)cc1)C(=O)N[C@@H](CCCCN(C)C1CC2CCC1C2)C(=O)N[C@@H](CO)C(=O)NCCOCCOCCOCCOCCOCCNC(=O)c1cc(NC(=O)c2cc(NC(=O)c3nc(NC(=O)c4cc(NC(=O)[C@@H](N)CCNC(=O)c5nc(NC(=O)c6cc(NC(=O)c7cc(NC(=O)c8nccn8C)cn7C)cn6C)cn5C)cn4C)cn3C)cn2C)cn1C` (stereo partly drawn) [Compound 58] as the compound, how does the EC50 read?
Answer: The EC50 was greater than 500 nM.

Question: How did the EC50 turn out when `CCN(CC)CCCC[C@H](NC(=O)[C@H](CC(C)C)NC(=O)[C@H](C)NC(=O)[C@H](Cc1ccccc1)NC(=O)c1ccccc1)C(=O)N[C@@H](CO)C(=O)NCCOCCOCCOCCOCCOCCNC(=O)c1cc(NC(=O)c2cc(NC(=O)c3nc(NC(=O)c4cc(NC(=O)[C@@H](N)CCNC(=O)c5nc(NC(=O)CCNC(=O)c6cc(NC(=O)c7nccn7C)cn6C)cn5C)cn4C)cn3C)cn2C)cn1C` [Compound 90] was run?
Answer: The EC50 was greater than 500 nM.

Question: For `CCN(CC)CCCC[C@H](NC(=O)[C@H](CC(C)C)NC(=O)[C@H](C)NC(=O)[C@H](Cc1ccccc1)NC(=O)c1ccc(C(C)(C)C)cc1)C(=O)N[C@@H](CO)C(=O)N1CCC(C#CC#CC2CCN(CCOCCOCCOCCNC(=O)CCNC(=O)c3nc(NC(=O)c4cc(NC(=O)CCNC(=O)c5nc(NC(=O)CCCNC(=O)c6cc(NC(=O)c7nc(NC(=O)CCNC(=O)c8cc(NC(=O)c9nccn9C)cn8C)cn7C)cn6C)cn5C)cn4C)cn3C)CC2)CC1` [Compound 180], which EC50 is on record?
Answer: Its EC50 is less than 100 nM.

Question: Which EC50 does the source give for `CCN(CC)CCCC[C@H](NC(=O)[C@H](CC(C)C)NC(=O)[C@H](C)NC(=O)[C@H](Cc1ccccc1)NC(=O)c1ccc(C(C)(C)C)cc1)C(=O)N[C@@H](CO)C(=O)NCCOCCOCCOCCOCCOCCNC(=O)c1cc(NC(=O)c2nc(NC(=O)CCCNC(=O)c3cc(NC(=O)c4nc(NC(=O)CCNC(=O)c5cc(NC(=O)c6nccn6C)cn5C)cn4C)cn3C)cn2C)cn1C` [Compound 110] here?
Answer: The EC50 was greater than 500 nM.

Same assay, conditions: Homo sapiens, Fibroblast; DM1 fibroblasts, 48 h treatment, 8-point dose response, 3 μM top dose; read-out: Foci Reduction in Fibroblast EC50, 48 h

Question: `COc1cc2nc(N3CCCCC3)nc(NC3CCN(CCOCCOCCOCCOCCOCCOCCOCCOCCOCCOCCNC(=O)CCNC(=O)c4nc(NC(=O)c5cc(NC(=O)CCNC(=O)c6nc(NC(=O)CCCNC(=O)c7cc(NC(=O)c8nc(NC(=O)CCNC(=O)c9cc(NC(=O)c%10nccn%10C)cn9C)cn8C)cn7C)cn6C)cn5C)cn4C)CC3)c2cc1OC` [Compound 193] was tested. Which pEC50 did it give?
Answer: Its pEC50 is less than 6.30.

Question: With `Cn1cc(NC(=O)c2cc(NC(=O)c3nc(NC(=O)c4cc(NC(=O)[C@@H](N)CCNC(=O)c5nc(NC(=O)CCNC(=O)c6cc(NC(=O)c7nccn7C)cn6C)cn5C)cn4C)cn3C)cn2C)cc1C(=O)NCCOCCOCCOCCOCCOCCOCCOCCOCCOCCOCCOCCOCCOCCOCCOCCN1CCC(C(=O)Nc2ncc(SCc3ncc(C(C)(C)C)o3)s2)CC1` [Compound 121] as the compound, how does the pEC50 read?
Answer: The pEC50 was less than 6.30.
